Counter-ions that a name gives are not always drawn.
System: HMOX1
Assay: HMOX1 Protein Assay (immunostaining of HO-1 in NHLF cells, GE InCell 1000)
Type: cell-based
Conditions: Homo sapiens, fold change above DMSO treated cells, 3 μM compound (asterisk), 16 h
Summary of the method: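 Fold induction of HO-1 over vehicle, normally at 5 μM compound (asterisk marks 3 μM), in 0.8% DMSO medium. Normal human lung fibroblasts were treated 16 h, then paraformaldehyde-fixed, anti-HO-1/Alexa 488 stained with Hoechst, and read by high-content imaging.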

Question: How did the fold induction at 3 µM turn out when CNCCn1c(Nc2nc3ccc(OC(F)(F)F)cc3s2)nc2cc(C(=O)NCCOCCO)ccc21 [Example 239, 1-(2-Methylamino-ethyl)-2-(6-trifluoromethoxy-benzothiazol-2 ylamino)-1H-benzoimidazole-5-carboxylic acid[2-(2-hydroxy-ethoxy)-ethyl]-amide hydrochloride] was run?
Answer: 10

Question: Which fold induction at 3 µM does the source give for CN(C)C(=O)[C@H](CCCCN)NC(=O)c1ccc2c(c1)nc(Nc1nc3ccc(C(F)(F)F)cc3s1)n2C [Example 369, 1-Methyl-2-(6-trifluoromethyl-benzothiazol-2-ylamino)-1H-benzoimidazole-5-carboxylic acid ((S)-5-amino-1-dimethylcarbamoyl-pentyl)-amide hydrochloride] here?
Answer: 22.4

Question: With C[C@H](O)CNC(=O)c1ccc2c(c1)nc(Nc1nc3ccc(Cl)cc3s1)n2C [Example 204, 2-(6-Chloro-benzothiazol-2-ylamino)-1-methyl-1H-benzoimidazole-5-carboxylic acid ((S)-2-hydroxy-propyl)-amide] as the compound, how does the fold induction at 3 µM read?
Answer: 19.3

Question: How did the fold induction at 3 µM turn out when CNC(=O)CNC(=O)c1ccc2c(c1)nc(Nc1nc3ccc(C(F)(F)F)cc3s1)n2C [Example 381, 1-Methyl-2-(6-trifluoromethyl-benzothiazol-2-ylamino)-1H-benzoimidazole-5-carboxylic acid methylcarbamoylmethyl-amide] was run?
Answer: 28.2

Question: C[C@H](NC(=O)c1ccc2c(c1)nc(Nc1nc3ccc(Cl)cc3s1)n2C)C(=O)N1CCN(C)CC1 [Example 464, 2-(6-Chloro-benzothiazol-2-ylamino)-1-methyl-1H-benzoimidazole-5-carboxylic acid [(S)-1-methyl-2-(4-methyl-piperazin-1-yl)-2-oxo-ethyl]-amide] was tested. Which fold induction at 3 µM did it give?
Answer: 27.2

Question: With Cn1c(Nc2nc3ccc(C(F)(F)F)cc3s2)nc2cc(C(=O)NCCCCCO)ccc21 [Example 228, 1-Methyl-2-(6-trifluoromethyl-benzothiazol-2-ylamino)-1H-benzoimidazole-5-carboxylic acid (5-hydroxy-pentyl)-amide] as the compound, how does the fold induction at 3 µM read?
Answer: 26

Same assay, conditions: Homo sapiens, fold change above DMSO treated cells, 5 μM compound, 16 h

Question: Which fold induction at 5 µM does the source give for Cn1c(Nc2nc3ccc(OC(F)(F)F)cc3s2)nc2cc(C(=O)NCCCC(C)(C)CO)ccc21 [Example 229, 1-Methyl-2-(6-trifluoromethoxy-benzothiazol-2-ylamino)-1H-benzoimidazole-5-carboxylic acid (5-hydroxy-4,4-dimethyl-pentyl)-amide] here?
Answer: 14.4

Question: With CCOC(=O)c1cnc2c(c1)nc(Nc1nc3ccc(OC(F)(F)F)cc3s1)n2C [Example 71, 3-Methyl-2-(6-trifluoromethoxy-benzothiazol-2-ylamino)-3H-imidazo[4,5-b]pyridine-6-carboxylic acid ethyl ester] as the compound, how does the fold induction at 5 µM read?
Answer: 4.2

Question: For CN(C)[C@@H]1CCN(C(=O)CNC(=O)c2ccc3c(c2)nc(Nc2nc4ccc(Cl)cc4s2)n3C)C1 [Example 417, 2-(6-Chloro-benzothiazol-2-ylamino)-1-methyl-1H-benzoimidazole-5-carboxylic acid [2-((R)-3-dimethylamino-pyrrolidin-1-yl)-2-oxo-ethyl]-amide], which fold induction at 5 µM is on record?
Answer: 62.8

Question: How did the fold induction at 5 µM turn out when Cn1c(Nc2nc3ccc(OC(F)(F)F)cc3s2)nc2cc(C(=O)NCCNC(=O)OC(C)(C)C)ccc21 [Example 103, (2-{[1-Methyl-2-(6-trifluoromethoxy-benzothiazol-2-ylamino)-1H-benzoimidazole-5-carbonyl]-amino}-ethyl)-carbamic acid tert-butyl ester] was run?
Answer: 9

Question: Which fold induction at 5 µM does the source give for CNC(=O)c1ccc2c(c1)nc(Nc1nc3ccc(OC(F)(F)F)cc3s1)n2CC(C)C [Example 164, 1-Isobutyl-2-(6-trifluoromethoxy-benzothiazol-2-ylamino)-1H-benzoimidazole-5-carboxylic acid methylamide] here?
Answer: 20.5

Question: Cn1c(Nc2nc3ccc(OC(F)(F)F)cc3s2)nc2cc(C(=O)NC3CCNC3)ccc21 (stereo not drawn) [Example 289, 1-Methyl-2-(6-trifluoromethoxy-benzothiazol-2-ylamino)-1H-benzoimidazole-5-carboxylic acid pyrrolidin-3-ylamide hydrochloride] was tested. Which fold induction at 5 µM did it give?
Answer: 44.6

Question: For COCCNC(=O)c1ccc2c(c1)nc(Nc1nc3ccc(OC(F)(F)F)cc3s1)n2CCOC [Example 168, 1-(2-Methoxy-ethyl)-2-(6-trifluoromethoxy-benzothiazol-2-ylamino)-1H-benzoimidazole-5-carboxylic acid (2-methoxy-ethyl)-amide], which fold induction at 5 µM is on record?
Answer: 21.9

Question: With CNC(=O)c1ccc2c(c1)nc(Nc1nc3ccc(Cl)cc3s1)n2C [Example 88, 2-(6-Chloro-benzothiazol-2-ylamino)-1-methyl-1H-benzoimidazole-5-carboxylic acid methylamide] as the compound, how does the fold induction at 5 µM read?
Answer: 13

Question: Which fold induction at 5 µM does the source give for COCCn1c(Nc2nc3ccc(Cl)cc3s2)nc2cc(C(=O)NCC(=O)N3CCC(CO)CC3)ccc21 [Example 443, 2-(6-Chloro-benzothiazol-2-ylamino)-1-(2-methoxy-ethyl)-1H-benzoimidazole-5-carboxylic acid [2-(4-hydroxymethyl-piperidin-1-yl)-2-oxo-ethyl]-amide] here?
Answer: 39.8

Question: With CNC(=O)c1ccc2c(c1)nc(Nc1nc3ccc(OC(F)(F)F)cc3s1)n2CCOC [Example 167, 1-(2-Methoxy-ethyl)-2-(6-trifluoromethoxy-benzothiazol-2-ylamino)-1H-benzoimidazole-5-carboxylic acid methylamide] as the compound, how does the fold induction at 5 µM read?
Answer: 24.2

Question: With CCOCCNC(=O)c1ccc2c(c1)nc(Nc1nc3ccc(Cl)cc3s1)n2CC [Example 179, 2-(6-Chloro-benzothiazol-2-ylamino)-1-ethyl-1H-benzoimidazole-5-carboxylic acid (2-ethoxy-ethyl)-amide] as the compound, how does the fold induction at 5 µM read?
Answer: 24.4

Question: How did the fold induction at 5 µM turn out when CCn1c(Nc2nc3ccc(C(F)(F)F)cc3s2)nc2cc(C(=O)NCCSC)ccc21 [Example 185, 1-Ethyl-2-(6-trifluoromethyl-benzothiazol-2-ylamino)-1H-benzoimidazole-5-carboxylic acid (2-methylsulfanyl-ethyl)-amide] was run?
Answer: 11.2

Question: For COCCNC(=O)c1ccc2c(c1)nc(Nc1nc3cc(F)ccc3s1)n2C [Example 123, 2-(5-Fluoro-benzothiazol-2-ylamino)-1-methyl-1H-benzimidazole-5-carboxylic acid (2-methoxy-ethyl)-amide], which fold induction at 5 µM is on record?
Answer: 12.7

Question: For Cn1c(Nc2nc3ccc(OC(F)(F)F)cc3s2)nc2cc(-c3ncc[nH]3)ccc21 [Example 196, [5-(1H-Imidazol-2-yl)-1-methyl-1H-benzimidazol-2-yl]-(6-trifluoromethoxy-benzothiazol-2-yl)-amine], which fold induction at 5 µM is on record?
Answer: 11.4

Question: Which fold induction at 5 µM does the source give for Cn1c(Nc2nc3ccc(OC(F)(F)F)cc3s2)nc2cc(C(=O)NC3CCN(CC(C)(C)O)C3)ccc21 (stereo not drawn) [Example 298, 1-Methyl-2-(6-trifluoromethoxy-benzothiazol-2-ylamino)-1H-benzoimidazole-5-carboxylic acid [1-(2-hydroxy-2-methyl-propyl)-pyrrolidin-3-yl]-amide] here?
Answer: 21.1

Question: Which fold induction at 5 µM does the source give for Cn1c(Nc2nc3ccc(OC(F)(F)F)cc3s2)nc2cc(C(=O)NCC(=O)NCc3ccc(O)cc3)ccc21 [Example 389, 1-Methyl-2-(6-trifluoromethoxy-benzothiazol-2-ylamino)-1H-benzoimidazole-5-carboxylic acid [(4-hydroxy-benzylcarbamoyl)-methyl]-amide] here?
Answer: 38.6

Question: For COCCn1c(Nc2nc3ccc(OC(F)(F)F)cc3s2)nc2cc(C(=O)NCC(=O)N3CCN(C)CC3)ccc21 [Example 189, 1-(2-Methoxy-ethyl)-2-(6-trifluoromethoxy-benzothiazol-2-ylamino)-1H-benzoimidazole-5-carboxylic acid [2-(4-methyl-piperazin-1-yl)-2-oxo-ethyl]-amide], which fold induction at 5 µM is on record?
Answer: 24.6

Question: How did the fold induction at 5 µM turn out when CN(C)CCOCCNC(=O)c1ccc2c(c1)nc(Nc1nc3ccc(OC(F)(F)F)cc3s1)n2C [Example 273, 1-Methyl-2-(6-trifluoromethoxy-benzothiazol-2-ylamino)-1H-benzoimidazole-5-carboxylic acid [2-(2-dimethylamino-ethoxy)-ethyl]-amide] was run?
Answer: 25.3

Question: For Cn1c(Nc2nc3ccc(OC(F)(F)F)cc3s2)nc2cc(C(=O)NCC(=O)N3CCC(Oc4ncccn4)CC3)ccc21 [Example 452, 1-Methyl-2-(6-trifluoromethoxy-benzothiazol-2-ylamino)-1H-benzoimidazole-5-carboxylic acid {2-oxo-2-[4-(pyrimidin-2-yloxy)-piperidin-1-yl]-ethyl}-amide], which fold induction at 5 µM is on record?
Answer: 71.7

Question: With CNCC1CCN(C(=O)CNC(=O)c2ccc3c(c2)nc(Nc2nc4ccc(Cl)cc4s2)n3C)CC1 [Example 457, 2-(6-Chloro-benzothiazol-2-ylamino)-1-methyl-1H-benzoimidazole-5-carboxylic acid [2-(4-methylaminomethyl-piperidin-1-yl)-2-oxo-ethyl]-amide hydrochloride] as the compound, how does the fold induction at 5 µM read?
Answer: 39.9

Question: Which fold induction at 5 µM does the source give for CNC(=O)c1ccc2c(c1)nc(Nc1nc3ccc(C(F)(F)F)cc3s1)n2C [Example 84, 1-Methyl-2-(6-trifluoromethyl-benzothiazol-2-ylamino)-1H-benzoimidazole-5-carboxylic acid methylamide] here?
Answer: 19

Question: Which fold induction at 5 µM does the source give for Cn1c(Nc2nc3ccc(Cl)cc3s2)nc2cc(C(=O)N3CCN(CCO)CC3)ccc21 [Example 306, [2-(6-Chloro-benzothiazol-2-ylamino)-1-methyl-1H-benzoimidazol-5-yl]-[4-(2-hydroxy-ethyl)-piperazin-1-yl]-methanone] here?
Answer: 38.7

Question: For CNC(=O)c1ccc2c(c1)nc(Nc1nc3cc(F)c(F)cc3s1)n2C [Example 86, 2-(5,6-Difluoro-benzothiazol-2-ylamino)-1-methyl-1H-benzoimidazole-5-carboxylic acid methylamide], which fold induction at 5 µM is on record?
Answer: 9.7

Question: With Cn1c(Nc2nc3ccc(Cl)cc3s2)nc2cc(C(=O)NCCCCO)ccc21 [Example 220, 2-(6-Chloro-benzothiazol-2-ylamino)-1-methyl-1H-benzoimidazole-5-carboxylic acid (4-hydroxy-butyl)-amide] as the compound, how does the fold induction at 5 µM read?
Answer: 61.9

Reference: patent US8759535B2, “Substituted fused imidazole derivatives, pharmaceutical compositions, and methods of use thereof” (High Point Pharmaceuticals, LLC, priority 2010, dated 2014)
